This is an account of results in ChEMBL document CHEMBL1275355, “Molecular modeling study on potent and selective adenosine A(3) receptor agonists” (Bioorg Med Chem, 2010).

Assay [1] addresses Adenosine receptors; A1 & A3 (Homo sapiens) (UniProt P30542+P0DMS8). As to the kind of experiment: Selectivity ratio of Ki for human adenosine A1 receptor to Ki for human adenosine A3 receptor.
A further assay is filed under the species Homo sapiens. As to the kind of experiment: Selectivity ratio of Ki for human adenosine A2A receptor to Ki for human adenosine A3 receptor.
A further assay addresses T1, Adenosine receptor A3 (Homo sapiens, UniProt P0DMS8).
T1 sequence (P0DMS8 whole entry): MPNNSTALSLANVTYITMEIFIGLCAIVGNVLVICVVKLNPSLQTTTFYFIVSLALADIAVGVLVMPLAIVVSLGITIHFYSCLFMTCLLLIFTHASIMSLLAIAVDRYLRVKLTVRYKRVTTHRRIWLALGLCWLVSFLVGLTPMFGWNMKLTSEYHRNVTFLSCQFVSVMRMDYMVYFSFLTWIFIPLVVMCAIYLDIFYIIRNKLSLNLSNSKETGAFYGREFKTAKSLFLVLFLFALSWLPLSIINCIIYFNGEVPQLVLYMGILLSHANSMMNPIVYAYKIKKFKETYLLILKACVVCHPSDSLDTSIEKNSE
As to the kind of experiment: Binding affinity to human adenosine A3 receptor.

The target in the next assay is Adenosine receptor A2a (Homo sapiens, UniProt P29274). As to the kind of experiment: Binding affinity to human adenosine A2A receptor.
A further assay concerns the target T2, Adenosine receptor A1 (Homo sapiens, UniProt P30542).
T2 sequence (P30542 whole entry): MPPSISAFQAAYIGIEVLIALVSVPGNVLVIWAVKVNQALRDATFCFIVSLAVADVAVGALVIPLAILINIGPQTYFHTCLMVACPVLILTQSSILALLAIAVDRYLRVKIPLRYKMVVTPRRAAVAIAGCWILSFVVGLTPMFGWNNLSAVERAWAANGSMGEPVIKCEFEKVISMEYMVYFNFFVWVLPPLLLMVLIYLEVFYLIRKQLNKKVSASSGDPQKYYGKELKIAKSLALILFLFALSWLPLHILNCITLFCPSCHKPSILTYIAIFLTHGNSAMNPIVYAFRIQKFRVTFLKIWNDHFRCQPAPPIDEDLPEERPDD
As to the kind of experiment: Binding affinity to human adenosine A1 receptor.

Adenosine receptor A2a, sequence (P29274 whole entry): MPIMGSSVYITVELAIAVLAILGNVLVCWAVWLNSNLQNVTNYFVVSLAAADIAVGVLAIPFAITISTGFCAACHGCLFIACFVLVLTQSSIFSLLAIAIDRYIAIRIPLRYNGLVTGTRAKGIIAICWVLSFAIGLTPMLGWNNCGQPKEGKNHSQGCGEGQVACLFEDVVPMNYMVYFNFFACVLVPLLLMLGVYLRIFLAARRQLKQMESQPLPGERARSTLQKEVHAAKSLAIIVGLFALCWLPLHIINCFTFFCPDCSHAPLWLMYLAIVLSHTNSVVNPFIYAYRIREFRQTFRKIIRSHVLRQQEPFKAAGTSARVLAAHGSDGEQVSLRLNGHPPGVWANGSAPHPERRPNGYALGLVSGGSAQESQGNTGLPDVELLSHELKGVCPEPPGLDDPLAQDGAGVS

For `CNC(=O)[C@H]1O[C@@H](n2cnc3c(NC)nc(C#Cc4ccc(F)cc4)nc32)[C@H](O)[C@@H]1O`, the Ratio Ki was determined as 12400 in assay [1] and 29500 in the assay listed under Homo sapiens.
Take `CONc1nc(C#Cc2ccccc2)nc2c1ncn2[C@@H]1O[C@H](CO)[C@@H](O)[C@H]1O`: the Ki on Adenosine receptor A3 (read-out: pKi (converted)) was 3.98 nM.
For the compound `CNC(=O)[C@H]1O[C@@H](n2cnc3c(NC)nc(C#Cc4ccccc4)nc32)[C@H](O)[C@@H]1O`, the Ratio Ki in assay [1] came out at 85; in the assay listed under Homo sapiens, 115.
In the case of `CNC(=O)[C@H]1O[C@@H](n2cnc3c(N)nc(C#Cc4ccccc4)nc32)[C@H](O)[C@@H]1O`, the Ki came to 1760 nM on Adenosine receptor A2a, 7.3 nM on Adenosine receptor A3 (read-out: Ki) and 3920 nM at Adenosine receptor A1.
Regarding `CNC(=O)[C@H]1O[C@@H](n2cnc3c(NC)nc(C#Cc4ccccn4)nc32)[C@H](O)[C@@H]1O`, the Ratio Ki in assay [1] stood at 21800; in the assay listed under Homo sapiens, 60800.
As to `CNC(=O)[C@H]1O[C@@H](n2cnc3c(NC)nc(C#Cc4ccc(C(C)=O)cc4)nc32)[C@H](O)[C@@H]1O`, the figures for the Ratio Ki (in assay [1]; in the assay listed under Homo sapiens) were 30900 and 21300, respectively. The Ki on Adenosine receptor A3 (read-out: pKi (converted)) was 0.331 nM.
